# Biological target: SARS-CoV-2 Mpro C145A mutant (Severe acute respiratory syndrome coronavirus 2, UniProt P0DTD1, C3408A)
# Format: binding
row,Structure (SMILES),ΔTm Mpro C145A [°C]
1,CC1(C)[C@@H]2[C@@H](C(=O)N[C@@H](C[C@@H]3CCNC3=O)C(=O)C(N)=O)N(C(=O)CCc3ccccc3)C[C@@H]21 [ML102],0
2,CNC(=O)C(=O)[C@H](C[C@@H]1CCNC1=O)NC(=O)[C@@H]1[C@@H]2[C@H](CN1C(=O)CCc1ccccc1)C2(C)C [ML102m],0
3,CC1(C)[C@@H]2[C@@H](C(=O)NC(C[C@@H]3CCNC3=O)C(=O)C(N)=O)N(C(=O)CNc3c(F)cc(F)cc3F)C[C@@H]21 (stereo partly shown) [ML104],0
4,CNC(=O)C(=O)[C@H](C[C@@H]1CCNC1=O)NC(=O)[C@@H]1[C@@H]2[C@H](CN1C(=O)CNc1c(F)cc(F)cc1F)C2(C)C [ML104m],0
5,COc1cccc2[nH]c(C(=O)N3C[C@H]4[C@@H]([C@H]3C(=O)N[C@@H](C[C@@H]3CCNC3=O)C(=O)C(N)=O)C4(C)C)cc12 [ML105],0
6,CC(C)(C)[C@H](NC(=O)C12CC(C1)C2)C(=O)N1C[C@H]2[C@@H]([C@H]1C(=O)N[C@@H](C[C@@H]1CCNC1=O)C(=O)C(N)=O)C2(C)C [ML1002],0.1
7,CNC(=O)C(=O)[C@H](C[C@@H]1CCNC1=O)NC(=O)[C@@H]1[C@@H]2[C@H](CN1C(=O)[C@@H](NC(=O)C13CC(C1)C3)C(C)(C)C)C2(C)C [ML1002m],0.1

# — patent publication US20230192660A1 (priority 2020, published 2023)
